In ChEMBL document CHEMBL5236595, “JDQ443, a Structurally Novel, Pyrazole-Based, Covalent Inhibitor of KRASG12C for the Treatment of Solid Tumors” (J Med Chem, 2022):
Converted amounts (≈) assume the structure as drawn.

Tests used:
[1] = Apparent permeability in human Caco-2 cells; type: ADME, cell-based
[2] = tested on: GTPase KRas (Homo sapiens), P01116 [G12C]; assay: In vivo target occupancy at KRAS G12C mutant in human MIA PaCa-2 cells xenografted mouse assessed as decrease in […] expression at 30 mg/kg, po after 6 hrs; type: functional, organism-based
[3] = Plasma protein binding in rat incubated for 6 hrs by LC-MS/MS based rapid equlibrium dialysis method; type: ADME, cell-free; settings: read-out: PPB (converted)
[4] = Solubility of compound in FaSSIF; type: ADME
[5] = AUC in human MIA PaCa-2 cells xenografted mouse at 30 mg/kg, po; type: ADME, organism-based; parameters: dose 30 mg/kg, route po; settings: in vivo
[6] = Tmax in mouse xenografted with human MIA PaCa-2 cells at 3 to 30 mg/kg, po; type: ADME, organism-based; settings: in vivo, dose 3-30 mg/kg
[7] = tested on: GTPase KRas (Homo sapiens), P01116 [G12C]; assay: In vivo target occupancy at KRAS G12C mutant in human MIA PaCa-2 cells xenografted mouse assessed as decrease in free KRAS G12C level at 30 mg/kg, po after 3 hrs; type: functional, organism-based
[8] = Plasma protein binding in human incubated for 6 hrs by LC-MS/MS based rapid equlibrium dialysis method; type: ADME, cell-free; settings: read-out: PPB (converted)
[9] = tested on: MIA PaCa-2; assay: Antitumor activity against human MIA PaCa-2 cells xenografted in mouse assessed as tumor regression at 30 mg/kg, po; type: functional
[10] = tested on: NCI-H358; assay: Antiproliferative activity against human NCI-H358 cells by resazurin assay; type: functional
[11] = AUCinfinity in Beagle dog at 15 mg/kg, po measured upto 24 hrs by LC-MS/MS method; type: ADME, organism-based, Canis lupus familiaris; parameters: dose 15 mg/kg, time < 24 hrs, route po; settings: in vivo
[12] = AUCinfinity in mouse at 30 mg/kg, po measured upto 24 hrs by LC-MS/MS method; type: ADME, organism-based; parameters: dose 30 mg/kg, time < 24 hrs, route po; settings: in vivo
[13] = Solubility of compound in FeSSIF; type: ADME
[14] = tested on: GTPase KRas (Homo sapiens), P01116 [G12C]; assay: In vivo target occupancy at KRAS G12C mutant in human MIA PaCa-2 cells xenografted mouse assessed as decrease in […] expression at 30 mg/kg, po after 3 hrs; type: functional, organism-based
[15] = tested on: GTPase KRas (Homo sapiens), P01116 [G12C]; assay: In vivo target occupancy at KRAS G12C mutant in human MIA PaCa-2 cells xenografted mouse assessed as decrease in free KRAS G12C level at 30 mg/kg, po after 6 hrs; type: functional, organism-based
[16] = target: Cav1.2 (Homo sapiens, UniProt Q13936); assay: Inhibition of Cav1.2 (unknown origin) at 50 uM relative to control
[17] = target: Voltage-gated inwardly rectifying potassium channel KCNH2 (Homo sapiens, UniProt Q12809); assay: Inhibition of human ERG by manual patch clamp method; type: toxicity
[18] = tested on: NCI-H1437; assay: Antiproliferative activity against human NCI-H1437 cells by resazurin assay; type: functional
[19] = target: Voltage-dependent L-type calcium channel subunit alpha-1C (Homo sapiens, UniProt Q13936); assay: Inhibition of Cav1.2 (unknown origin)
[20] = tested on: GTPase KRas (Homo sapiens), P01116 [G12C]; assay: In vivo target occupancy at KRAS G12C mutant in human MIA PaCa-2 cells xenografted mouse assessed as decrease in free KRAS G12C level at 30 mg/kg, po after 24 hrs; type: functional, organism-based
[21] = target: Nav1.5 (Homo sapiens, UniProt Q14524); assay: Inhibition of Nav1.5 (unknown origin) at 50 uM relative to control
[22] = Toxicity in mouse xenografted with human MIA PaCa-2 cells assessed as tolerability at 3 to 30 mg/kg, po; type: organism-based; settings: in vivo, dose 3-30 mg/kg
[23] = Plasma protein binding in dog incubated for 6 hrs by LC-MS/MS based rapid equlibrium dialysis method; type: ADME, cell-free, Canis lupus familiaris; settings: read-out: PPB (converted)
[24] = target: GTPase KRas (Homo sapiens, UniProt P01116, G12C); assay: Inhibition of KRAS G12C mutant in human NCI-H358 cells assessed as reduction in ERK phosphorylation incubated for 6 hrs by MSD assay; type: cell-based
[25] = target: T1, Cytochrome P450 3A4 (Homo sapiens, UniProt P08684); assay: Time dependent inhibition of CYP3A4 in pooled human liver microsomes measured upto 30 mins by LC-MS/MS method; type: ADME, Microsome; settings: 0.5 h
[26] = Cmax in human MIA PaCa-2 cells xenografted mouse at 30 mg/kg, po; type: ADME, organism-based; parameters: dose 30 mg/kg, route po; settings: in vivo
[27] = Aqueous solubility of compound in pH 6.8; type: physicochemical; settings: aqueous medium
[28] = tested on: MIA PaCa-2; assay: Antitumor activity against human MIA PaCa-2 cells xenografted in mouse assessed as tumor regression at 10 mg/kg, po; type: functional
[29] = Cmax in mouse at 30 mg/kg, po measured upto 24 hrs by LC-MS/MS method; type: ADME, organism-based; parameters: dose 30 mg/kg, time < 24 hrs, route po; settings: in vivo
[30] = Dose normalized AUC in Beagle dog at 15 mg/kg, po measured upto 24 hrs by LC-MS/MS method; type: ADME, organism-based, Canis lupus familiaris; settings: in vivo
[31] = target: T1, Cytochrome P450 3A4; assay: Inhibition of CYP3A4 in human liver microsomes using testosterone as substrate incubated for 10 to 30 mins in presence of NADPH by LC-MS/MS method; type: ADME, Microsome
[32] = Dose normalized AUC in mouse at 30 mg/kg, po measured upto 24 hrs by LC-MS/MS method; type: ADME, organism-based; settings: in vivo
[33] = Tmax in mouse at 30 mg/kg, po measured upto 24 hrs by LC-MS/MS method; type: ADME, organism-based; settings: in vivo
[34] = tested on: GTPase KRas (Homo sapiens), P01116 [G12C]; assay: In vivo target occupancy at KRAS G12C mutant in human MIA PaCa-2 cells xenografted mouse assessed as decrease in […] expression at 30 mg/kg, po after 24 hrs; type: functional, organism-based
[35] = Plasma protein binding in mouse incubated for 6 hrs by LC-MS/MS based rapid equlibrium dialysis method; type: ADME, cell-free; settings: read-out: PPB (converted)
[36] = Lipophilicity, logD of compound at pH 7.4; type: physicochemical; settings: buffer
[37] = Volume of distribution at steady state in Beagle dog at 0.1 mg/kg, iv measured upto 24 hrs by LC-MS/MS method; type: ADME, organism-based, Canis lupus familiaris; settings: in vivo, read-out: Vdss
[38] = target: Sodium channel protein type 5 subunit alpha (Homo sapiens, UniProt Q14524); assay: Inhibition of Nav1.5 (unknown origin)
[39] = Apparent permeability across apical to basolateral side in MDCK-MDR1 cells at 10 uM after 2 hrs by LC-MS/MS analysis; type: ADME, cell-based, Canis lupus familiaris; settings: dog
[40] = target: T2, Cytochrome P450 2C9 (Homo sapiens, UniProt P11712); assay: Time dependent inhibition of CYP2C9 in pooled human liver microsomes measured upto 30 mins by LC-MS/MS method; type: ADME, Microsome; settings: 0.5 h
[41] = target: T2, Cytochrome P450 2C9; assay: Inhibition of CYP2C9 in human liver microsomes using diclofenac as substrate incubated for 10 to 30 mins in presence of NADPH by LC-MS/MS method; type: ADME, Microsome
[42] = Aqueous solubility of compound in pH 4; type: physicochemical; settings: aqueous medium
[43] = Volume of distribution at steady state in mouse at 1 mg/kg, iv measured upto 24 hrs by LC-MS/MS method; type: ADME, organism-based; settings: in vivo, read-out: Vdss
[44] = Tmax in Beagle dog at 15 mg/kg, po measured upto 24 hrs by LC-MS/MS method; type: ADME, organism-based, Canis lupus familiaris; settings: in vivo
[45] = Cmax in Beagle dog at 15 mg/kg, po measured upto 24 hrs by LC-MS/MS method; type: ADME, organism-based, Canis lupus familiaris; parameters: time < 24 hrs, dose 15 mg/kg, route po; settings: in vivo
[46] = target: Cytochrome P450 2D6 (Homo sapiens, UniProt P10635); assay: Inhibition of CYP2D6 in human liver microsomes using bufuralol as substrate incubated for 10 to 30 mins in presence of NADPH by LC-MS/MS method; type: ADME, Microsome

GTPase KRas (Homo sapiens), P01116 [G12C], sequence (P01116 whole entry G12C): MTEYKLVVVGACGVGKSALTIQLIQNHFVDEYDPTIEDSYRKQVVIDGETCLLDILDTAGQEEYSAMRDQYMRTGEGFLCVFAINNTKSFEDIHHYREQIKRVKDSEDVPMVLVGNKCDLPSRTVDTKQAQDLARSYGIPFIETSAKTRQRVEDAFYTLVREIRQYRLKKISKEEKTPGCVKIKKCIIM
T2 sequence (P11712 whole entry): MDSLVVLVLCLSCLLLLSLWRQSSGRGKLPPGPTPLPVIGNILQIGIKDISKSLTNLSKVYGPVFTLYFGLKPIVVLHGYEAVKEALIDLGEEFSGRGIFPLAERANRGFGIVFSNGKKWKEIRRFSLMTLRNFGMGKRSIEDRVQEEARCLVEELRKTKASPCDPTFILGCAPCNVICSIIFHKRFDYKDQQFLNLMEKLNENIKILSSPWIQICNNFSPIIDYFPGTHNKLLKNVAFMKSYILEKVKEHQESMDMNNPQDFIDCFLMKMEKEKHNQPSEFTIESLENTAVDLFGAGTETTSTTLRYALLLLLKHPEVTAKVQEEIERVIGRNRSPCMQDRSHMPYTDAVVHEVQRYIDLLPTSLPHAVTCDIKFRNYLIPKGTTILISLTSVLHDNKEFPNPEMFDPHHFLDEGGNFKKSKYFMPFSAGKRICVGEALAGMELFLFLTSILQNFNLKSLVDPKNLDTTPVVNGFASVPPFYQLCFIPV
T1 sequence (P08684 whole entry): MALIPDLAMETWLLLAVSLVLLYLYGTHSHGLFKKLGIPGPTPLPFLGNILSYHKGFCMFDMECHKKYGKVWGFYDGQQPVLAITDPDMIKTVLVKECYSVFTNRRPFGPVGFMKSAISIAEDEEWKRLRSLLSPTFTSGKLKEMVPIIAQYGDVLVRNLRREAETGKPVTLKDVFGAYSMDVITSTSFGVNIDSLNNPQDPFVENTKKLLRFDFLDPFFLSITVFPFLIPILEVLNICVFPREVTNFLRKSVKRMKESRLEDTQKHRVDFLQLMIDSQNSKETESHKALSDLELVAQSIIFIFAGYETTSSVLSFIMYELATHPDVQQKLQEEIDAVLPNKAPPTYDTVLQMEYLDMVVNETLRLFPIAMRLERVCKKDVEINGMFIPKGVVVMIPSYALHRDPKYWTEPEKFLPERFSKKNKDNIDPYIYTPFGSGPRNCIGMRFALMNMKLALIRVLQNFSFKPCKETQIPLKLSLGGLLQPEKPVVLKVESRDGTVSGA
Voltage-dependent L-type calcium channel subunit alpha-1C, sequence (Q13936 whole entry): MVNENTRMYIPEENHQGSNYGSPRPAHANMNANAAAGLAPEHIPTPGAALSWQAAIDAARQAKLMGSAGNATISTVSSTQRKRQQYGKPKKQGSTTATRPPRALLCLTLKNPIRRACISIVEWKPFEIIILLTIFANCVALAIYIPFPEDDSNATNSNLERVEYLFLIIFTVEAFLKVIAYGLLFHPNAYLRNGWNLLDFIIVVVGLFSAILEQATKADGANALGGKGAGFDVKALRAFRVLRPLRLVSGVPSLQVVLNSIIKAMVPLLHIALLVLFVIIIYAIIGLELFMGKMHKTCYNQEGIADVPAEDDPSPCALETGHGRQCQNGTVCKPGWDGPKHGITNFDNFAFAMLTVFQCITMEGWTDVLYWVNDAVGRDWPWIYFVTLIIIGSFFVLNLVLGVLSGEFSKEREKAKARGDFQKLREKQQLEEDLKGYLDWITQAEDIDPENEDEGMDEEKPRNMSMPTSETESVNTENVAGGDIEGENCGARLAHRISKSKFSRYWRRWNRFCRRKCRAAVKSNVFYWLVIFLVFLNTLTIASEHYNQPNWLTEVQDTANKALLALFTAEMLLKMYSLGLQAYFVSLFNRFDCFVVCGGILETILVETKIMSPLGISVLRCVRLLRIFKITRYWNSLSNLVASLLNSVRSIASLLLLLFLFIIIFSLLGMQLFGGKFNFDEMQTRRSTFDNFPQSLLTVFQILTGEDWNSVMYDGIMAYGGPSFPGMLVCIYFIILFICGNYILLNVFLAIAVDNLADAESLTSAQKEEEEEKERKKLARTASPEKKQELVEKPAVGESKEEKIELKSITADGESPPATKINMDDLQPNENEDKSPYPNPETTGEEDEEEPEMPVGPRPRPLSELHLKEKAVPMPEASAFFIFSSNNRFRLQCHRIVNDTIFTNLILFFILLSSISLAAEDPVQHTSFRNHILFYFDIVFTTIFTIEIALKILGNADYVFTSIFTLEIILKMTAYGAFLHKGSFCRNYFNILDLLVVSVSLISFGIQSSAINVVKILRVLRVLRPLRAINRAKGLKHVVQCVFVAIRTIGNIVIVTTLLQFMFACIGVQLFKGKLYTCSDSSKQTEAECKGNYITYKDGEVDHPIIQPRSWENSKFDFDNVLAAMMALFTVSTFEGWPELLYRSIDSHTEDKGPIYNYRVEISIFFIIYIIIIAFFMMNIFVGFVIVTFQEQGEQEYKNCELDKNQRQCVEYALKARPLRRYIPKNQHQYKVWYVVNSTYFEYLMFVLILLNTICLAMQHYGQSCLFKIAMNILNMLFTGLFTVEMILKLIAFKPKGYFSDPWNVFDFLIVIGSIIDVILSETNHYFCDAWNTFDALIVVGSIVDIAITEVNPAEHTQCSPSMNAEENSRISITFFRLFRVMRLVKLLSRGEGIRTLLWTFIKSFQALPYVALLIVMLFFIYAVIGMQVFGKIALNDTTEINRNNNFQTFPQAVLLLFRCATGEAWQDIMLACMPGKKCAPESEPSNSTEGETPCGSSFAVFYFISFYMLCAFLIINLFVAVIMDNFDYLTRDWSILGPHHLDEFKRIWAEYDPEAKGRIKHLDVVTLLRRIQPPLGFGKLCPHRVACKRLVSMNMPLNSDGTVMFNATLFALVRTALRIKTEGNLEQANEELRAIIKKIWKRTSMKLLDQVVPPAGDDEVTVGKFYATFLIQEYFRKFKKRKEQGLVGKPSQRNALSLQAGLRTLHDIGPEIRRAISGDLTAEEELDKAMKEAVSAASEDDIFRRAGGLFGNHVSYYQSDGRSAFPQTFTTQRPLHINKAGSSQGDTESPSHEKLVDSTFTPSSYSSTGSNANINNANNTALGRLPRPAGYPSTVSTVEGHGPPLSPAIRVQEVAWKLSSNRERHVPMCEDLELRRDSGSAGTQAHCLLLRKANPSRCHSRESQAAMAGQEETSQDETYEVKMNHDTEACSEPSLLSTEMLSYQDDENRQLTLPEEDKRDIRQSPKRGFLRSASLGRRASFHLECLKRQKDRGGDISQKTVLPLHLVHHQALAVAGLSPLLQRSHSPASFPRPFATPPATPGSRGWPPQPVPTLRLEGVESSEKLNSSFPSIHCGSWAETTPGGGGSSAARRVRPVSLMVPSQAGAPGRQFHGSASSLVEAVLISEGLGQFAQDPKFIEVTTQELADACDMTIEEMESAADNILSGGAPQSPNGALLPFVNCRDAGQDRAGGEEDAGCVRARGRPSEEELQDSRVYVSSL
Cav1.2, sequence (Q13936 whole entry): as above
Voltage-gated inwardly rectifying potassium channel KCNH2, sequence (Q12809 whole entry): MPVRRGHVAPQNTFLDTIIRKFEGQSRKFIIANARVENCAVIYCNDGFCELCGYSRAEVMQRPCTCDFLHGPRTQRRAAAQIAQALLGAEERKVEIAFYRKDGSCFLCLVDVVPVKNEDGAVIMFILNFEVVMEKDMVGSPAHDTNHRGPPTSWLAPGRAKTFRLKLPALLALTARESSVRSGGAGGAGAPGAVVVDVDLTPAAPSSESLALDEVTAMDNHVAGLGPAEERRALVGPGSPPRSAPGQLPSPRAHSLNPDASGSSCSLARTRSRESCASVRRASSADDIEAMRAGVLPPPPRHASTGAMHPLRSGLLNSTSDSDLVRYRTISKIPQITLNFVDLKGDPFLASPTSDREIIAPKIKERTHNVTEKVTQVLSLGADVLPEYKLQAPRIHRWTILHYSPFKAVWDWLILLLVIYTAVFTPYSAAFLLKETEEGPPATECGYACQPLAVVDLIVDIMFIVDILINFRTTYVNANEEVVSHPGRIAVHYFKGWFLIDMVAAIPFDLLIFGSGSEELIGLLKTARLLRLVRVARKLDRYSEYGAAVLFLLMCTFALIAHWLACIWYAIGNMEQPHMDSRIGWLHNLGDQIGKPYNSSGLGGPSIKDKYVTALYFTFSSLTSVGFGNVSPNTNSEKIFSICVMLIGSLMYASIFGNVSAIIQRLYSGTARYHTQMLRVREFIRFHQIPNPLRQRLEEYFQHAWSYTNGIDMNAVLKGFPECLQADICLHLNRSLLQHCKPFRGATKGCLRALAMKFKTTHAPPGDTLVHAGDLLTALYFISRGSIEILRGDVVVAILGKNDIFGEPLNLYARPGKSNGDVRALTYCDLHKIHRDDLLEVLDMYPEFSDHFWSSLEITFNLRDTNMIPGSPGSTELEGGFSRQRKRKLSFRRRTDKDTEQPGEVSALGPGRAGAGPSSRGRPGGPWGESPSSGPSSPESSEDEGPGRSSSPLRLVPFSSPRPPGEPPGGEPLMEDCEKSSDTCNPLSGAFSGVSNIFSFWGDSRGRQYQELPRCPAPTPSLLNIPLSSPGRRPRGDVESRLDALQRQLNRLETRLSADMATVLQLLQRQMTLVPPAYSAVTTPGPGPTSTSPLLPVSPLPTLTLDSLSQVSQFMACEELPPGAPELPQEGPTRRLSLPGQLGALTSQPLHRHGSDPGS
GTPase KRas, sequence (P01116 whole entry G12C): as the sequence (P01116 whole entry G12C) above

With `C=CC(=O)N1CC2(CC(n3nc(-c4ccc5c(cnn5C)c4)c(-c4c(Cl)c(C)cc5[nH]ncc45)c3C)C2)C1` [OPNURASIB] the Papp [1] was 6.78 ×10⁻⁶ cm/s, the Occ [2] was 37% and the fraction unbound at 6 h [3] was 0.024. For the same compound, the solubility [4] was 6 µg/mL (≈ 11.4 µM), the AUC [5] was 8.9 µM·h and the Tmax [6] was 1 h. For the same compound, the Occ [7] was 3%, the fraction unbound at 6 h [8] was 0.007 and the Activity [9] was -87%. For the same compound, the GI50 [10] was 0.018 µM, the AUC(0-inf) [11] was 10 µM·h and the AUC(0-inf) [12] was 6 µM·h. The solubility [13] was 250 µg/mL (≈ 475 µM), the Occ [14] was 27% and the Occ [15] was 2%. It also gave an inhibition at 50 µM [16] of 8%, an IC50 [17] greater than 4.7 µM and a GI50 [18] of 4.4 µM. For the same compound, the IC50 [19] was greater than 10 µM, the Occ [20] was 23% and the inhibition at 50 µM [21] was 12%. For the same compound, the Activity [22] was “Non-Toxic”, the fraction unbound at 6 h [23] was 0.031 and the IC50 [24] was 0.02 µM. The TDI [25] was “Not Active”, the Cmax [26] was 1700 nM and the solubility [27] was 10 µM (≈ 5.26 µg/mL). It also gave an Activity [28] of -34%, a Cmax [29] of 2000 nM and an AUC/dose [30] of 0.65 µM·h. The IC50 [31] was 6.23 µM, the AUC/dose [32] was 0.2 µM·h and the Tmax [33] was 0.5 h. It also gave an Occ [34] of 100%, a fraction unbound at 6 h [35] of 0.016 and a logD [36] of 4.6. It also gave a Vd [37] of 4.2 L/kg, an IC50 [38] greater than 10 µM and a Papp A→B at 2 h, 10 µM [39] of 5 ×10⁻⁶ cm/s. For the same compound, the TDI [40] was “Not Active”, the IC50 [41] was 3.74 µM and the solubility [42] was 10 µM (≈ 5.26 µg/mL). For the same compound, the Vd [43] was 5.9 L/kg, the Tmax [44] was 5 h and the Cmax [45] was 1100 nM. The IC50 [46] was greater than 20 µM.
